In BigSolDB 2.1:

O=C(CCc1ccc(O)cc1)c1c(O)cc(O)cc1O
solubility (mole fraction)
Details | 288.2 K | 298.2 K | 308.2 K | 318.2 K | 328.2 K
in 1,4-dioxane | 0.0211 | 0.0249 | 0.029 | 0.0331 | 0.0384
in ethanol | 0.0345 | 0.0373 | 0.0399 | 0.0421 | 0.0447
in ethyl acetate | 0.0266 | 0.0283 | 0.0309 | 0.0343 | 0.037
in isopropanol | 0.0351 | 0.0374 | 0.039 | 0.0411 | 0.0429
in methanol | 0.0245 | 0.0259 | 0.0275 | 0.0299 | 0.0317
in n-butanol | 0.0336 | 0.035 | 0.0362 | 0.0378 | 0.0394
in n-butyl acetate | 0.0258 | 0.0281 | 0.0305 | 0.0323 | 0.0346
in n-hexanol | 0.0289 | 0.0313 | 0.0332 | 0.0347 | 0.0366
in n-pentanol | 0.0301 | 0.0324 | 0.034 | 0.0357 | 0.0378
in n-propanol | 0.03 | 0.0318 | 0.0336 | 0.0358 | 0.0382
in sec-butanol | 0.0101 | 0.014 | 0.0175 | 0.0217 | 0.0244
in water | 3.46e-06 | 5.76e-06 | 1.12e-05 | 1.7e-05 | 2.7e-05
